Columns and labels:
Assay in all cases: AUC of viability dose-response curve (% viability x log10 dose units); higher = less sensitive
Conditions in all cases: 48 h
SEM cells = test system: SEM cells
Summary of the method: (§1)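 Seeding of medium-adapted leukemia cells was at 500 or 1000 cells/well in 1536-well plates, followed by 48 h at 37°C with library compounds in DMSO at 11 threefold doses from 47 μM to 0.79 nM. CellTiter-Glo One luminescence was normalised per plate to DMSO and cell-free wells and fitted as a four-parameter log-logistic function of log10 dose. Area under the curve was integrated by trapezoidal rule, with curves exceeding full viability scaled and curves failing quality control removed.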

P12-Ichikawa = test system: P12-Ichikawa
Summary of the method: as §1

NOMO1 = test system: NOMO1
Summary of the method: as §1

[1] = RPMI 5 mM glucose + 10% dialyzed FBS

SMILES	AUC of viability dose-response curve (SEM cells; HPLM + 10% dialyzed FBS)	AUC of viability dose-response curve (SEM cells; RPMI 5 mM glucose + 10% FBS)	AUC of viability dose-response curve (SEM cells; [1])	AUC of viability dose-response curve (P12-Ichikawa; HPLM + 10% dialyzed FBS)	AUC of viability dose-response curve (P12-Ichikawa; RPMI 5 mM glucose + 10% FBS)	AUC of viability dose-response curve (P12-Ichikawa; [1])	AUC of viability dose-response curve (NOMO1; HPLM + 10% dialyzed FBS)	AUC of viability dose-response curve (NOMO1; RPMI 5 mM glucose + 10% FBS)	AUC of viability dose-response curve (NOMO1; [1])
COc1cc(O)c2c(c1)C(=O)c1cc(C)cc(O)c1C2=O	427	399	414	451	454	446	416	451	446
CC(C)(O)/C=C\C(=O)[C@](C)(O)[C@H]1[C@H](O)C[C@]2(C)[C@@H]3CC=C4[C@@H](C=C(O)C(=O)C4(C)C)[C@]3(C)C(=O)C[C@@]12C	234	209	221	269	251	259	272	273	268
CO/N=C(\C(=O)N[C@@H]1C(=O)N2C(C(=O)OCOC(=O)C(C)(C)C)=C(/C=C\c3scnc3C)CS[C@H]12)c1csc(N)n1	419	412	453	463	449	451	453	448	398
C[C@]12CC[C@H]3[C@@H](CCC/4=C/C(=O)CC[C@]34C)[C@@H]1CC[C@@H]2OC(=O)CCC5CCCC5	452	463	462	448	459	466	461	471	464
C[C@H]1COC/2=C1/C(=O)C(=O)C3=C4CCCC(C)(C)C4=CC=C23	434	363	400	468	466	473	447	469	448
C[C@@]1(C(=O)Nc2ccc(F)nc2)CCCN1c1nc(Nc2cc(C3CC3)[nH]n2)c2cccn2n1	–	–	–	374	380	393	369	417	392
COc1cc(/C=C/C(=O)O)ccc1O	411	412	460	452	434	441	463	452	438
O.O.CCN1CCN(C(=O)N[C@H](C(=O)N[C@H]2[C@@H]3SC\C(=C(/N3C2=O)C(O)=O)CSC4=NN=N[N]4C)C5=CC=C(O)C=C5)C(=O)C1=O	422	425	413	–	–	–	–	–	–
COC(=O)\C1=C\CCN(C)C1	473	473	477	446	470	468	473	448	466
CCCC1OC2C[C@H]3[C@@H]4CCC5=CC(=O)C=C[C@]5(C)[C@H]4C(O)C[C@]3(C)[C@]2(C(=O)CO)O1 (stereo partly specified)	317	304	311	324	290	252	446	460	458
C#CCN[C@@H]1CCc2ccccc21.CS(=O)(=O)O	445	441	438	463	448	434	436	426	459
CC(C)Oc1ccc(C(=O)N[C@H](CNC(=O)CN(C)C)Cc2ccc(-c3cn4cccc([C@H](C)O)c4n3)cc2)cc1Cl	363	346	357	394	348	369	354	331	344
N#C/C(C(=O)c1ccc(Cl)cc1Cl)=C1/NC(=O)c2ccc(Cl)cc2N1	459	449	454	451	440	463	453	453	456
O=[S+]([O-])(c1cccc2cnccc12)N1CCCNCC1	452	463	447	456	476	467	457	471	465
Cc1nc(Nc2n[nH]c3c2CN(C(=O)N[C@H](CN(C)C)c2ccccc2)C3(C)C)c2sccc2n1	–	–	–	317	258	266	262	277	266
Nc1ncnc2c1nc(Cl)n2[C@@H]1O[C@H](CO)[C@@H](O)[C@H]1O	412	419	406	454	463	452	–	–	–
N#C/N=C(\NCCCCCCOc1ccc(Cl)cc1)Nc1ccncc1	48.4	34.6	38	–	–	–	–	–	–
CN(C)C1=C(Br)C=C(C=C1)C\2NC3=C(\C4=C2C(=O)CC(C)(C)C4)C5=CC=CC=C5C=C3 (stereo unspecified)	471	465	470	466	447	459	–	–	–
CC(C)(O)c1cc2nc(-c3cnc(N)nc3)nc(N3CCOCC3)c2s1	–	–	–	406	361	363	343	402	334
Cc1ncc([N+](=O)[O-])n1CC(C)O (stereo unspecified)	–	–	–	467	462	463	467	465	459
CN(C)CCN1C(=O)c2cccc3cc(N)cc(c23)C1=O	–	–	–	437	418	431	424	427	435

— the supplement of paper PMC11451515
